Experimental data from US20230132133A1, “METHODS AND COMPOSITIONS FOR THE TREATMENT OF C. DIFFICILE” (priority 2018, published 2023).
Converted amounts (≈) assume the structure as drawn.

Experiments:
[1] = system: B. amyloliquefaciens ART12; assay: Antibiotic MIC, VetMIC Lact-1 & Lact-2 panels; type: cell-based, Bacillus amyloliquefaciens; settings: Bacillus amyloliquefaciens, ART12; average results from N= 6; 24 hr at 37° C.
Protocol: (§1) The wells of the prefabricated 96-well plates were filled with 100 μL of the final suspension. The plates were sealed with an […], Sigma Aldrich) sealing film (to facilitate growth of the aerobic Bacillus strains. The plates were then incubated for 24 hr at 37° C. The results are recorded after 24 hours as the lowest concentration of the antibiotic to inhibit visible growth. The prefabricated panels […], Uppsala, Sweden) comprising the antibiotics ampicillin, vancomycin, gentamicin, kanamycin, streptomycin, erythromycin, clindamycin, tetracycline, chloramphenicol, neomycin, penicillin, quinupristin-dalfopristin, linezolid, trimethoprim, ciprofloxacin and rifampicin were used.

[2] = system: B. amyloliquefaciens ART24; assay: Antibiotic MIC, VetMIC Lact-1 & Lact-2 panels; type: cell-based, Bacillus amyloliquefaciens; settings: Bacillus amyloliquefaciens, ART24; average results from N= 6; 24 hr at 37° C.
Protocol: as §1

[3] = system: B. amyloliquefaciens ART4; assay: Antibiotic MIC, VetMIC Lact-1 & Lact-2 panels; type: cell-based, Bacillus amyloliquefaciens; settings: Bacillus amyloliquefaciens, ART4; average results from N= 6; 24 hr at 37° C.
Protocol: as §1

[4] = system: B. amyloliquefaciens ART24; assay: Antibiotic MIC following EFSA testing recommendations on lyophilized ART24 lots and cell banks; type: cell-based, Bacillus amyloliquefaciens; settings: for MIC: Bacillus amyloliquefaciens, read-out: MIC for ART24
Excerpt: The minimum inhibitory concentration (MIC) of the listed antimicrobials is expressed as µg/mL.

[5] = system: B. amyloliquefaciens ART12; assay: MIC of metronidazole and fidaxomicin, CLSI standard method; type: cell-based; settings: Bacillus amyloliquefaciens, triplicates, 16 hours, read-out: MIC against ART12
Protocol: (§2) Briefly, minimum inhibitory concentration assays were carried out in triplicate using 96-well plates (Sarstedt). Two-fold serial dilutions from an initial concentration of 512 µg/mL of each antibiotic were carried out in BHI broth (Merck). An overnight of the target strain was subcultured and incubated to an OD600 nm of 0.5 before being diluted to give a final inoculum of 10^5 cfu/ml in 200 µL and added to the antibiotic preparations. The plates were incubated at an appropriate temperature and inspected after 16 hours. The MIC was determined as the lowest concentration at which no growth was visible.

[6] = system: B. amyloliquefaciens ART24; assay: as above; type: cell-based; settings: Bacillus amyloliquefaciens, triplicates, 16 hours, read-out: MIC against ART24
Protocol: as §2

[7] = system: B. amyloliquefaciens ART4; assay: as above; type: cell-based; settings: Bacillus amyloliquefaciens, triplicates, 16 hours, read-out: MIC against ART4
Protocol: as §2

In the case of `CC1(C)S[C@@H]2[C@H](NC(=O)[C@H](N)c3ccccc3)C(=O)N2[C@H]1C(=O)O` [Ampicillin], the MIC [1] is reported as 0.25 µg/mL (≈ 0.715 µM), the MIC [2] is reported as 0.25 µg/mL (≈ 0.715 µM) and the MIC [3] is reported as 0.12 µg/mL (≈ 0.343 µM). The MIC ([4]; ART24, source CO-33-12A2) was ≤ 0.03 µg/mL, the MIC ([4]; ART24, source CO-33 ART 24 BHI) was ≤ 0.03 µg/mL and the MIC ([4]; ART24, source CO-33 ART 024 S) was ≤ 0.03 µg/mL. For the same compound, the MIC ([4]; ART24, source YD CO-33-10A2) was ≤ 0.03 µg/mL, the “MIC interpretation for ART24” value ([4]; source CO-33-12A2) was “S” and the “MIC interpretation for ART24” value ([4]; source CO-33 ART 24 BHI) was “S”. For the same compound, the “MIC interpretation for ART24” value ([4]; source CO-33 ART 024 S) was “S” and the “MIC interpretation for ART24” value ([4]; source YD CO-33-10A2) was “S”.
Work on `O=C(N[C@H](CO)[C@H](O)c1ccc([N+](=O)[O-])cc1)C(Cl)Cl` [Chloramphenicol] yielded an MIC [1] of 4 µg/mL (≈ 12.4 µM), an MIC [2] of 4 µg/mL (≈ 12.4 µM) and an MIC [3] of 2 µg/mL (≈ 6.19 µM). For the same compound, the MIC ([4]; ART24, source CO-33-12A2) was 2 µg/mL (≈ 6.19 µM), the MIC ([4]; ART24, source CO-33 ART 24 BHI) was 2 µg/mL (≈ 6.19 µM) and the MIC ([4]; ART24, source CO-33 ART 024 S) was 2 µg/mL (≈ 6.19 µM). For the same compound, the MIC ([4]; ART24, source YD CO-33-10A2) was 2 µg/mL (≈ 6.19 µM), the “MIC interpretation for ART24” value ([4]; source CO-33-12A2) was “S” and the “MIC interpretation for ART24” value ([4]; source CO-33 ART 24 BHI) was “S”. The “MIC interpretation for ART24” value ([4]; source CO-33 ART 024 S) was “S” and the “MIC interpretation for ART24” value ([4]; source YD CO-33-10A2) was “S”.
For `O=C(O)c1cn(C2CC2)c2cc(N3CCNCC3)c(F)cc2c1=O` [Ciprofloxacin], the MIC [1] was ≤ 0.25 µg/mL, the MIC [2] was ≤ 0.25 µg/mL and the MIC [3] was ≤ 0.25 µg/mL. The MIC ([4]; ART24, source CO-33-12A2) was ≤ 0.03 µg/mL, the MIC ([4]; ART24, source CO-33 ART 24 BHI) was ≤ 0.03 µg/mL and the MIC ([4]; ART24, source CO-33 ART 024 S) was ≤ 0.03 µg/mL. For the same compound, the MIC ([4]; ART24, source YD CO-33-10A2) was ≤ 0.03 µg/mL, the “MIC interpretation for ART24” value ([4]; source CO-33-12A2) was “S” and the “MIC interpretation for ART24” value ([4]; source CO-33 ART 24 BHI) was “S”. The “MIC interpretation for ART24” value ([4]; source CO-33 ART 024 S) was “S” and the “MIC interpretation for ART24” value ([4]; source YD CO-33-10A2) was “S”.
`CCC[C@@H]1C[C@@H](C(=O)N[C@@H]([C@H]2O[C@H](SC)[C@H](O)[C@@H](O)[C@H]2O)[C@H](C)Cl)N(C)C1` [Clindamycin] showed an MIC [1] of 1 µg/mL (≈ 2.35 µM), an MIC [2] of 0.5 to 1 µg/mL (≈ 1.18 to 2.35 µM) and an MIC [3] of 0.5 µg/mL (≈ 1.18 µM). The MIC ([4]; ART24, source CO-33-12A2) was 0.25 µg/mL (≈ 0.588 µM), the MIC ([4]; ART24, source CO-33 ART 24 BHI) was 0.25 µg/mL (≈ 0.588 µM) and the MIC ([4]; ART24, source CO-33 ART 024 S) was 0.25 µg/mL (≈ 0.588 µM). The MIC ([4]; ART24, source YD CO-33-10A2) was 0.12 µg/mL (≈ 0.282 µM), the “MIC interpretation for ART24” value ([4]; source CO-33-12A2) was “S” and the “MIC interpretation for ART24” value ([4]; source CO-33 ART 24 BHI) was “S”. The “MIC interpretation for ART24” value ([4]; source CO-33 ART 024 S) was “S” and the “MIC interpretation for ART24” value ([4]; source YD CO-33-10A2) was “S”.
`CC[C@H]1OC(=O)[C@H](C)[C@@H](O[C@H]2C[C@@](C)(OC)[C@@H](O)[C@H](C)O2)[C@H](C)[C@@H](O[C@@H]2O[C@H](C)C[C@H](N(C)C)[C@H]2O)[C@](C)(O)C[C@@H](C)C(=O)[C@H](C)[C@@H](O)[C@]1(C)O` [Erythromycin] gave an MIC [1] of 0.12 µg/mL (≈ 0.164 µM), an MIC [2] of 0.12 µg/mL (≈ 0.164 µM) and an MIC [3] of 0.12 µg/mL (≈ 0.164 µM). For the same compound, the MIC ([4]; ART24, source CO-33-12A2) was 0.06 µg/mL (≈ 0.0818 µM), the MIC ([4]; ART24, source CO-33 ART 24 BHI) was 0.12 µg/mL (≈ 0.164 µM) and the MIC ([4]; ART24, source CO-33 ART 024 S) was 0.12 µg/mL (≈ 0.164 µM). The MIC ([4]; ART24, source YD CO-33-10A2) was 0.06 µg/mL (≈ 0.0818 µM), the “MIC interpretation for ART24” value ([4]; source CO-33-12A2) was “S” and the “MIC interpretation for ART24” value ([4]; source CO-33 ART 24 BHI) was “S”. For the same compound, the “MIC interpretation for ART24” value ([4]; source CO-33 ART 024 S) was “S” and the “MIC interpretation for ART24” value ([4]; source YD CO-33-10A2) was “S”.
`CCc1c(Cl)c(O)c(Cl)c(O)c1C(=O)O[C@H]1[C@H](O)[C@H](OC)[C@H](OC/C2=C\C=C\C[C@H](O)/C(C)=C/[C@H](CC)[C@@H](O[C@@H]3OC(C)(C)[C@@H](OC(=O)C(C)C)[C@H](O)[C@@H]3O)/C(C)=C/C(C)=C/C[C@@H]([C@@H](C)O)OC2=O)O[C@@H]1C` [Fidaxomicin, fidaxomicin] showed an MIC ([4]; ART24, source CO-33-12A2) of 4 µg/mL (≈ 3.78 µM), an MIC ([4]; ART24, source CO-33 ART 24 BHI) of 4 µg/mL (≈ 3.78 µM) and an MIC ([4]; ART24, source CO-33 ART 024 S) of 4 µg/mL (≈ 3.78 µM). For the same compound, the MIC ([4]; ART24, source YD CO-33-10A2) was 2 µg/mL (≈ 1.89 µM), the MIC [5] was < 1 µg/mL and the MIC [6] was 2 µg/mL. For the same compound, the MIC [7] was < 1 µg/mL.
In the case of `NC[C@H]1O[C@H](O[C@H]2[C@H](O)[C@@H](O[C@H]3O[C@H](CO)[C@@H](O)[C@H](N)[C@H]3O)[C@H](N)C[C@@H]2N)[C@H](O)[C@@H](O)[C@@H]1O` [Kanamycin], the MIC [1] is reported as ≤ 2 µg/mL, the MIC [2] is reported as ≤ 2 µg/mL and the MIC [3] is reported as ≤ 2 µg/mL. For the same compound, the MIC ([4]; ART24, source CO-33-12A2) was ≤ 0.5 µg/mL, the MIC ([4]; ART24, source CO-33 ART 24 BHI) was ≤ 0.5 µg/mL and the MIC ([4]; ART24, source CO-33 ART 024 S) was ≤ 0.5 µg/mL. The MIC ([4]; ART24, source YD CO-33-10A2) was ≤ 0.5 µg/mL, the “MIC interpretation for ART24” value ([4]; source CO-33-12A2) was “S” and the “MIC interpretation for ART24” value ([4]; source CO-33 ART 24 BHI) was “S”. The “MIC interpretation for ART24” value ([4]; source CO-33 ART 024 S) was “S” and the “MIC interpretation for ART24” value ([4]; source YD CO-33-10A2) was “S”.
Work on `CC(=O)NC[C@H]1CN(c2ccc(N3CCOCC3)c(F)c2)C(=O)O1` [Linezolid] yielded an MIC [1] of 0.5 µg/mL (≈ 1.48 µM), an MIC [2] of 0.5 µg/mL (≈ 1.48 µM) and an MIC [3] of 0.5 µg/mL (≈ 1.48 µM). For the same compound, the MIC ([4]; ART24, source CO-33-12A2) was 0.5 µg/mL (≈ 1.48 µM), the MIC ([4]; ART24, source CO-33 ART 24 BHI) was 0.5 µg/mL (≈ 1.48 µM) and the MIC ([4]; ART24, source CO-33 ART 024 S) was 0.5 µg/mL (≈ 1.48 µM). For the same compound, the MIC ([4]; ART24, source YD CO-33-10A2) was 0.25 µg/mL (≈ 0.741 µM).
